Laboratory results from patent publication US10399958B2, “PPAR agonists, compounds, pharmaceutical compositions, and methods of use thereof” (Mitobridge, Inc., priority 2015, dated 2019).
Like-named read-outs stand apart in the source and are kept apart here.

How the values were obtained:
PPAR delta = PPAR delta (Homo sapiens (Human), UniProt Q03181); assay: PPARδ activity screen: GAL4-PPARδ LBD transactivation luciferase reporter in CV-1 cells; assay type: cell-based
Description: CV-1 cells were grown in DMEM+10% charcoal stripped FCS. Cells were seeded into 384-well plates the day before transfection to give a confluency of 50-80% at transfection. A total of […] containing 0.64 micrograms pCMX-PPARDelta LBD, 0.1 micrograms pCMXβGal, 0.08 micrograms pGLMH2004 reporter and 0.02 micrograms pCMX empty vector was transfected per well using FuGene transfection reagent according to the manufacturer's instructions (Roche). Cells were allowed to express protein for 48 h followed by addition of compound.
Human PPARδ was used to PCR amplify the PPARδ LBD. […] Ensuing fusions were verified by sequencing.
All compounds were dissolved in DMSO and diluted 1:1000 upon addition to the cells. Compounds were tested in quadruple in concentrations ranging from 0.001 to 100 μM. Cells were treated with compound for 24 h followed by luciferase assay. Each compound was tested in at least two separate experiments.
Medium including test compound was aspirated and washed with PBS. 50 μl PBS including 1 mM Mg++ and Ca++ were then added to each well. The luciferase assay was performed using the LucLite kit according to the manufacturer's instructions (Packard Instruments). Light emission was quantified by counting on a Perkin Elmer Envision reader. […] Beta-galactosidase assays were performed in the microwell plates using a kit from Promega and read in a Perkin Elmer Envision reader. The beta-galactosidase data were used to normalize (transfection efficiency, cell growth etc.) the luciferase data.
The activity of a compound is calculated as fold induction compared to an untreated sample. For each compound the efficacy (maximal activity) is given as a relative activity compared to GW501516, a PPARδ agonist. […] EC50 values were calculated via non-linear regression usingGraphPad PRISM (GraphPad Software, San Diego, Calif.).

[1] = Pharmacokinetic (PK) screening (i.v.) in male CD1 mice; assay type: in vivo, mouse; conditions: for clearance: male, CD1, mouse, plasma, iv
Description: In this example, the intravenous PK profile of several PPARδ agonists disclosed herein in male CD1 mice was determined. Similar methods can be used to analyze other compounds provided herein. All compounds were administered separately to CD1 mice at 1 mg/kg (i.v.), except the comparator compound to 2c was administered at 3 mg/kg (i.v.), as noted below.

[2] = test system: Sprague-Dawley rat acute kidney injury; assay: Ischemia-reperfusion kidney injury in rats, plasma creatinine; assay type: in vivo; conditions: 30 mg/kg orally 4 hours after surgery, blood 24 hours after reperfusion, FIG. 11
Description: Sprague-Dawley male rats approximately 280-300 g, with ad libitum access to standard feed and water were used in these experiments. Rats were anesthetized with isoflurane and placed ventrally on a temperature controlled heated surgical platform. A skin incision was made on the dorsal surface, exposing both kidneys through flank incisions. Vascular clips were applied to both renal pedicles and occlusion lasted 45 minutes. After 45 min, the clips were removed, kidneys were monitored for successful reperfusion, and surgical sites were sutured. The sham group was subjected to similar surgical procedures, except that the occluding clamps were not applied. Four independent studies, testing each compound were performed. Compounds were formulated as a fresh daily suspension in 0.25% sodium carboxymethyl-cellulose, 0.25% Tween-80 in purified water. Compounds were dosed orally at 30 mg/kg 4 hours after animals awoke from surgery and sham surgery and IRI control animals were similarly dosed with vehicle.
Twenty-four (24) hours after reperfusion, blood was collected in K2 EDTA tubes by retro-orbital bleeding from all groups under mild isoflurane anesthesia. Plasma was separated by centrifugation at 3000 rpm for 10 minutes at 4° C. Plasma creatinine was analyzed using a fully automated clinical biochemistry analyzer (Siemens Dimension® Xpand® Plus Integrated Chemistry System)
Creatinine was tested for normal distribution in all groups via a D'Agostino-Pearson omnibus normality test and a Shapiro-Wilk normality test. Normally distributed data was subjected to an unpaired, two-tailed t test. Non-normally distributed data was subjected to a Mann-Whitney test (non-parametric). Statistical significance is determined by p<0.05 of IRI-vehicle compared to compound treated groups.

[3] = CV-1 cells, 24 h compound treatment, luciferase, read-out: PPAR delta transactivation EC50
[4] = 1 mg/kg, I.V. 1 mg/kg dose, read-out: CL
[5] = 1 mg/kg, I.V. 1 mg/kg dose, read-out: High or Low CL

PPAR delta, sequence (Q03181 128-441 limits assumed): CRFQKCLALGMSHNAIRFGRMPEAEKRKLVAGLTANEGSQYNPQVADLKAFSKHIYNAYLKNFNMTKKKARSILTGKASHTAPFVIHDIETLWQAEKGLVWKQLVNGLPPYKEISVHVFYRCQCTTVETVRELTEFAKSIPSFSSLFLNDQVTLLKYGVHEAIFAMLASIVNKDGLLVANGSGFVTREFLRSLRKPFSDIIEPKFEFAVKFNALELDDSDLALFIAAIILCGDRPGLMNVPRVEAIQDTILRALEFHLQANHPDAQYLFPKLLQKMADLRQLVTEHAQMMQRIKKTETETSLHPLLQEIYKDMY

| clearance [1, 4] [mL/min/kg] | clearance [1, 5] [mL/min/kg] | Structure (SMILES) | EC50 (PPAR delta; [3]) [nM] | further results |
| --- | --- | --- | --- | --- |
|  |  | Cc1cnc(-c2ccc(F)cc2)n1Cc1ccccc1OCCC[C@@H](C)CC(=O)O [Compound 2g, (R)-6-(2-((2-(4-fluorophenyl)-5-methyl-1H-imidazol-1-yl)methyl)phenoxy)-3-methylhexanoic acid] | 39 |  |
|  |  | Cc1cnc(-c2ccc(-c3ccco3)cc2)n1Cc1ccccc1OCCCCCC(=O)O [comparator compound to 2c, reference compound] |  | clearance ([1]; 3 mg/kg, 3 mg/kg i.v. dose, read-out: CL): 270 mL/min/kg; clearance ([1]; 3 mg/kg, 3 mg/kg i.v. dose, read-out: High or Low CL): > 85 mL/min/kg |
|  |  | Cc1cnc(-c2ccc(OC(F)F)cc2)n1Cc1ccccc1OCCC[C@@H](C)CC(=O)O [Compound 2l, (R)-6-(2-((2-(4-(difluoromethoxy)phenyl)-5-methyl-1H-imidazol-1-yl)methyl)phenoxy)-3-methylhexanoic acid] | 13.5 |  |
|  |  | Cc1cnc(-c2ccc(C(F)(F)F)cc2)n1Cc1ccccc1OCCCCCC(=O)O [Comparator Compound 1, reference compound] | 0.1 |  |
|  |  | Cc1cnc(-c2ccc(C(F)F)cc2)n1Cc1ccccc1OCCC[C@@H](C)CC(=O)O [Compound 2o, (R)-6-(2-((2-(4-(difluoromethyl)phenyl)-5-methyl-1H-imidazol-1-yl)methyl)phenoxy)-3-methylhexanoic acid] | 9.9 |  |
| 17 | < 85 | Cc1cnc(-c2ccc(C(F)(F)F)cc2)n1Cc1cc(F)ccc1OCCC[C@@H](C)CC(=O)O [Compound 2k, (R)-6-(4-fluoro-2-((5-methyl-2-(4-(trifluoromethyl)phenyl)-1H-imidazol-1-yl)methyl)phenoxy)-3-methylhexanoic acid] | 6.6 |  |
|  |  | Cc1cnc(-c2ccc(C(F)(F)F)cc2)n1Cc1ccccc1OCCCCCC(=O)O [comparator compound to 2d, reference compound] |  | CL / exposure after i.v. dose (result in words) ([1]; I.V. 1 mg/kg dose): Due to low exposure data could not be measured |
|  |  | Cc1ccc(-c2ncc(C)n2Cc2ccccc2OCCC[C@@H](C)CC(=O)O)cc1 [Compound 2f, (R)-3-methyl-6-(2-((5-methyl-2-(p-tolyl)-1H-imidazol-1-yl)methyl)phenoxy) hexanoic acid] |  | EC50 (PPAR delta): 24.3 nM |
|  |  | Cc1cnc(-c2ccc(C(F)(F)F)nc2)n1Cc1ccccc1OCCCCCC(=O)O [Comparator Compound 2, reference compound] | 3.8 |  |
|  |  | Cc1cnc(-c2ccc(C(F)(F)F)nc2)n1Cc1ccccc1OCCCCCC(=O)O [comparator compound to 2n, reference compound] |  | CL / exposure after i.v. dose (result in words) ([1]; I.V. 1 mg/kg dose): Due to low exposure data could not be measured |
| 33 | < 85 | Cc1cnc(-c2ccc(OC(F)(F)F)cc2)n1Cc1ccccc1OCCC[C@@H](C)CC(=O)O [Compound 2a, (R)-3-methyl-6-(2-((5-methyl-2-(4-(trifluoromethoxy)phenyl)-1H-imidazol-1-yl)methyl)phenoxy)hexanoic acid] |  | EC50 (PPAR delta): 1 nM; Plasma creatinine [2]: reduce plasma creatinine |
|  |  | Cc1cnc(-c2ccc(Cl)c(F)c2)n1Cc1ccccc1OCCCCC(C)(C)C(=O)O [Compound 2i, 6-(2-((2-(4-chloro-3-fluorophenyl)-5-methyl-1H-imidazol-1-yl)methyl)-phenoxy)-2,2-dimethylhexanoic acid] | 18.8 |  |
| 22 | < 85 | Cc1cnc(-c2ccc(Cl)cc2)n1Cc1ccccc1OCCC[C@@H](C)CC(=O)O [Compound 2b, (R)-6-(2-((2-(4-chlorophenyl)-5-methyl-1H-imidazol-1-yl)methyl)phenoxy)-3-methylhexanoic acid] |  | EC50 (PPAR delta): 7.8 nM |
| 85 | < 85 | Cc1ccc(OCCC[C@@H](C)CC(=O)O)c(Cn2c(C)cnc2-c2ccc(OC(F)(F)F)cc2)c1 [Compound 2m, (R)-3-methyl-6-(4-methyl-2-((5-methyl-2-(4-(trifluoromethoxy)phenyl)-1H-imidazol-1-yl)methyl)phenoxy)hexanoic acid] | 0.5 |  |
| 62 | < 85 | Cc1cnc(-c2ccc(C(F)(F)F)nc2)n1Cc1ccccc1OCCC[C@@H](C)CC(=O)O [Compound 2n, (R)-3-methyl-6-(2-((5-methyl-2-(6-(trifluoromethyl)pyridin-3-yl)-1H-imidazol-1-yl)methyl)phenoxy)hexanoic acid] |  | Plasma creatinine [2]: reduce plasma creatinine |
| 185 | > 85 | Cc1cnc(-c2ccc(OC(F)(F)F)cc2)n1Cc1ccccc1OCCCCCC(=O)O [comparator compound to 2e, reference compound] |  |  |
|  |  | CSc1ccc(-c2ncc(C)n2Cc2ccccc2OCCC[C@@H](C)CC(=O)O)cc1 [Compound 2p, (R)-3-methyl-6-(2-((5-methyl-2-(4-(methylthio)phenyl)-1H-imidazol-1-yl)methyl)phenoxy)hexanoic acid] | 13.1 |  |

| Structure (SMILES) | clearance [1, 4] [mL/min/kg] | clearance [1, 5] [mL/min/kg] | EC50 (PPAR delta; [3]) [nM] | further results |
| --- | --- | --- | --- | --- |
| Cc1cnc(-c2ccc(-c3ccco3)cc2)n1Cc1ccccc1OCCC[C@@H](C)CC(=O)O [Compound 2c, (R)-6-(2-((2-(4-(furan-2-yl)phenyl)-5-methyl-1H-imidazol-1-yl)methyl)phenoxy)-3-methylhexanoic acid] | 73 | < 85 | 3.7 |  |
| Cc1cnc(-c2ccc(C(F)(F)F)cc2)n1Cc1ccccc1OCCCCC(C)(C)C(=O)O [Compound 2q, 2,2-dimethyl-6-(2-((5-methyl-2-(4-(trifluoromethyl)phenyl)-1H-imidazol-1-yl)methyl)phenoxy)hexanoic acid] | 11 | < 85 | 14.3 |  |
| C/C(=C\COc1ccccc1Cn1c(C)cnc1-c1ccc(OC(F)(F)F)cc1)CCC(=O)O [Compound 2e, (E)-4-methyl-6-(2-((5-methyl-2-(4-(trifluoromethoxy)phenyl)-1H-imidazol-1-yl)methyl)phenoxy)hex-4-enoic acid] | 70 | < 85 | 0.2 |  |
| Cc1cnc(-c2ccc(Cl)c(F)c2)n1Cc1ccccc1OCCC[C@@H](C)CC(=O)O [Compound 2j, (R)-6-(2-((2-(4-chloro-3-fluorophenyl)-5-methyl-1H-imidazol-1-yl)methyl)phenoxy)-3-methylhexanoic acid] | 38 | < 85 | 0.8 |  |
| Cc1cnc(-c2ccc(C(F)(F)F)c(F)c2)n1Cc1ccccc1OCCCCC(C)(C)C(=O)O [Compound 2h, 6-(2-((2-(3-fluoro-4-(trifluoromethyl)phenyl)-5-methyl-1H-imidazol-1-yl)methyl)phenoxy)-2,2-dimethylhexanoic acid] | 25 | < 85 | 3.5 |  |
